In the CheMixHub viscosity set:

Assay: xn = mol fraction of the nth substance listed
Details: 101 kPa

C=CC(=O)OCCCC + CCOCCOCCO
viscosity [mPa·s]
Details	293.15 K	298.15 K	303.15 K	308.15 K	313.15 K	318.15 K
x2 = 0.0702	0.966	0.899	0.837	0.782	0.733	0.687
x2 = 0.1444	1.059	0.977	0.904	0.839	0.783	0.733
x2 = 0.2183	1.167	1.07	0.986	0.913	0.849	0.791
x2 = 0.2855	1.287	1.175	1.078	0.994	0.92	0.854
x2 = 0.3658	1.453	1.332	1.207	1.108	1.022	0.947
x2 = 0.4403	1.637	1.499	1.346	1.233	1.127	1.039
x2 = 0.5027	1.819	1.649	1.477	1.343	1.227	1.126
x2 = 0.569	2.028	1.817	1.646	1.488	1.351	1.236
x2 = 0.6545	2.363	2.103	1.884	1.697	1.531	1.393
x2 = 0.7189	2.654	2.336	2.079	1.871	1.672	1.527
x2 = 0.787	2.982	2.609	2.295	2.069	1.842	1.681
x2 = 0.8385	3.27	2.85	2.481	2.243	1.992	1.816
x2 = 0.9319	3.843	3.312	2.873	2.586	2.28	2.07
